According to US7829584B2, “Pyridines and pyridine N-oxides as modulators of thrombin” (Janssen Pharmaceutica NV, priority 2006, dated 2010):

target: T1, Human α-thrombin (Homo sapiens, UniProt P00734); test: In vitro inhibition of purified enzyme, kinetic analysis by chromogenic substrates (Thrombin assay); assay type: biochemical; details: substrate SucAAPR pNA 100 uM, 37° C., pH 7.5, 405 nm, thrombin 1.1 nM
T1 construct: Human α-thrombin (Enzyme Research Laboratories HT1002a); purchased Enzyme Research Laboratories (South Bend, Ind.) HT1002a
Experimental: In Vitro Inhibition of Purified Enzyme
Reagents: All buffer salts were obtained from Sigma Chemical Company (St. Louis, Mo.), and were of the highest purity available.
Human α-thrombin, was obtained from Enzyme Research Laboratories (South Bend, Ind.).
Kinetic Analysis by Chromogenic Substrates
Compounds were assessed for their inhibitory activity toward Thrombin by kinetic analysis using para-nitroaniline chromogenic substrates monitored at 405 nm. The assay buffer employed was 50 mM HEPES, pH 7.5, 200 mM NaCl, and fresh 0.05% n-octyl β-d-glucopyranoside. DMSO was present at a final concentration of 4%, derived from the substrate and inhibitory compound stock solutions. […] Reactions were initiated by addition of 10 μL protease, and increase in absorbance due to proteolytic cleavage of substrate was kinetically monitored at 37° C., 405 nm with a Molecular Devices Spectramax 340 plate reader. Initial velocities were determined by analysis of the initial linear portion of the reactions. Plots of vo/vi vs. inhibitor concentration, where vo=velocity without inhibitor, and vi=inhibited velocity, were fit to a linear regression line, and IC50 was determined from the reciprocal of the slope. Ki was calculated from IC50 using the Ki factor specific for the assay as: Ki=IC50×Ki factor, or Ki=IC50×(1/(1+[S]/Km)), where S is the substrate concentration in the assay, and Km is the Michaelis constant for the substrate (Cheng Y and Prusoff W H (1973) Biochem Pharmacol 22: 3099-3108).
The Thrombin assay incorporated substrate SucAAPR pNA (Bachem L-1720, [S]=100 uM final, Km=320 μM, Ki factor=0.76). Substrate in DMSO (10.7 mM) was diluted in assay buffer 100-fold for 100 μM final. Human α-thrombin (Enzyme Research Laboratories HT1002a) was diluted 1500-fold in assay buffer for a final assay concentration of 1.1 nM.

| SMILES | IC50 [nM] |
| --- | --- |
| N#Cc1ccc(NCC(F)(F)c2ccccn2)[n+]([O-])c1CC(=O)NCc1ccc2c(N)noc2c1 [Cpd 4, 3-cyano-6-(2,2-difluoro-2-pyridin-2-yl-ethylamino)-2-(3-amino-benzo[d]isoxazol-6-ylmethyl)aminocarbonylmethyl-pyridine 1-oxide] | ~6.1 |
| N#Cc1ccc(NCC(F)(F)c2ccccn2)[n+]([O-])c1CC(=O)NCc1ccc2ccnc(N)c2c1 [Cpd 5, 3-cyano-6-(2,2-difluoro-2-pyridin-2-yl-ethylamino)-2-(1-Amino-isoquinolin-7-ylmethyl)aminocarbonylmethyl-pyridine 1-oxide] | ~42 |
| N#Cc1ccc(NCC(F)(F)c2ccc(F)cc2)[n+]([O-])c1CC(=O)NCc1cnccc1-n1cncn1 [Cpd 8, 3-cyano-6-(2,2-difluoro-2-(4-fluoro-phenyl)-ethylamino)-2-(4-[1,2,4]triazol-1-yl-pyridin-3-ylmethyl)aminocarbonylmethyl-pyridine 1-oxide] | ~3.4 |
| N#Cc1ccc(NCC(F)(F)c2ccccn2)[n+]([O-])c1CC(=O)NCc1cccnc1-n1cncn1 [Cpd 10, 3-cyano-6-(2,2-difluoro-2-pyridin-2-yl-ethylamino)-2-(2-[1,2,4]triazol-1-yl-pyridin-3-ylmethyl)aminocarbonylmethyl-pyridine 1-oxide] | ~170 |
| N=C(N)NOCCNC(=O)Cc1nc(NCC(F)(F)c2ccccc2)ccc1Cl [Cpd 11, N-{2-[(aminoiminomethyl)aminooxy]ethyl}-2-[3-chloro-6-(2,2-difluoro-2-phenyl-ethylamino)-pyridin-2-yl]-acetamide] | ~370 |
| N#Cc1ccc(NCC(F)(F)c2ccccn2)[n+]([O-])c1CC(=O)NCc1cncc(Cl)c1 [Cpd 12, 3-cyano-6-(2,2-difluoro-2-pyridin-2-yl-ethylamino)-2-(5-chloro-pyridin-3-ylmethyl)aminocarbonylmethyl-pyridine 1-oxide] | ~66 |

More lines, in order of falling IC50, values ahead:

| IC50 [nM] | SMILES |
| --- | --- |
| ~280 | N#Cc1ccc(NCC(F)(F)c2ccccn2)[n+]([O-])c1CC(=O)NCc1ccc2onc(N)c2c1 [Cpd 3, 3-cyano-6-(2,2-difluoro-2-pyridin-2-yl-ethylamino)-2-(3-Amino-benzo[d]isoxazol-5-ylmethyl)aminocarbonylmethyl-pyridine 1-oxide] |
| ~200 | N#Cc1ccc(NCC(F)(F)c2ncccn2)[n+]([O-])c1CC(=O)NCc1cnccc1-n1cncn1 [Cpd 9, 3-cyano-6-(2,2-difluoro-2-pyrimidin-2-yl-ethylamino)-2-(4-[1,2,4]triazol-1-yl-pyridin-3-ylmethyl)aminocarbonylmethyl-pyridine 1-oxide] |
| ~3.3 | N#Cc1ccc(NCC(F)(F)c2ccccn2)[n+]([O-])c1CC(=O)NCc1cnccc1-n1cncn1 [Cpd 6, 3-cyano-6-(2,2-difluoro-2-pyridin-2-yl-ethylamino)-2-(4-[1,2,4]triazol-1-yl-pyridin-3-ylmethyl)aminocarbonylmethyl-pyridine 1-oxide] |
| ~0.54 | N=C(N)NOCCNC(=O)Cc1c(Cl)ccc(NCC(F)(F)c2ccccc2)[n+]1[O-] [Cpd 2, 3-chloro-6-(2,2-difluoro-2-phenyl-ethylamino)-2-{2-[(aminoiminomethyl)aminooxy]ethyl}aminocarbonylmethyl-pyridine 1-oxide] |
| ~0.44 | N#Cc1ccc(NCC(F)(F)c2ccccn2)[n+]([O-])c1CC(=O)NCc1c(F)cccc1-n1cncn1 [Cpd 7, 3-cyano-6-(2,2-difluoro-2-pyridin-2-yl-ethylamino)-2-(2-[1,2,4]triazol-1-yl-6-fluoro-phenylmethyl)aminocarbonylmethyl-pyridine 1-oxide] |
| ~0.13 | N#Cc1ccc(NCC(F)(F)c2ccccc2)[n+]([O-])c1CC(=O)NCCONC(=N)N [Cpd 1, 3-cyano-6-(2,2-difluoro-2-phenyl-ethylamino)-2-{2-[(aminoiminomethyl)aminooxy]ethyl}aminocarbonylmethyl-pyridine 1-oxide] |
